“Also recorded” adds a separate entry of the source. Where two headings read alike, the source gives them in different places.
Experiments:
[1] = Stability of curcumin constituents; format: physicochemical, rat; conditions: for Concentration in blank intestinal perfusion fluid: 37.5±0.5°C, drug-containing SEDDS; for Stability in pH 6.8 K-R blank intestinal perfusion fluid: within 8 h, curcumin SEDDS
[2] = Adsorption of the constituents by the intestinal wall; format: in vitro ADME, rat; conditions: for Absorption in the intestinal wall: curcumin SEDDS; for Concentration in incubation solution with intestinal wall: 37.5±0.5°C
[3] = test system: rat small intestines; assay: In situ single pass intestinal perfusion: absorption site and drug concentration; format: in vivo; conditions: for Comparison of absorption among intestinal segments / Concentration dependence of absorption: duodenum; for Comparison of absorption among intestinal segments: jejunum, ileum, colon; for Comparison of absorption among intestinal segments / Main intestinal absorption site: higher concentration group; for Concentration dependence of absorption: low, medium, high, higher concentrations; for Main intestinal absorption site: different intestinal segments; for Transport (absorption) mechanism: rat small intestine
[4] = test system: P-gp; format: in vivo, rat; conditions: for Influence of verapamil hydrochloride on absorption / Influence of verapamil hydrochloride on Ka / Influence of verapamil hydrochloride on Papp / Influence of verapamil hydrochloride on A%: ileum; for Influence of verapamil hydrochloride on Ka / Influence of verapamil hydrochloride on Papp: high-concentration inhibitor; for Substrate of P-glycoprotein: inferred from verapamil hydrochloride effect
[5] = target: MRP2 (Rattus norvegicus, UniProt Q63120); format: in vivo; conditions: for Substrate of MRP2: inferred from probenecid effect
[6] = test system: rat small intestines; format: in vivo; conditions: duodenum; for Influence of 2,4-dinitrophenol on Ka / Influence of 2,4-dinitrophenol on Papp / Influence of 2,4-dinitrophenol on A%: compared with the group without inhibitor; for Influence of 2,4-dinitrophenol on A%: 1.0, 2.0, 5.0 mmol/L
[7] = jejunum, high-concentration probenecid
[8] = jejunum, probenecid 0.02, 0.04, 0.08 mmol/L

Chain of MRP2 (Q63120 whole entry): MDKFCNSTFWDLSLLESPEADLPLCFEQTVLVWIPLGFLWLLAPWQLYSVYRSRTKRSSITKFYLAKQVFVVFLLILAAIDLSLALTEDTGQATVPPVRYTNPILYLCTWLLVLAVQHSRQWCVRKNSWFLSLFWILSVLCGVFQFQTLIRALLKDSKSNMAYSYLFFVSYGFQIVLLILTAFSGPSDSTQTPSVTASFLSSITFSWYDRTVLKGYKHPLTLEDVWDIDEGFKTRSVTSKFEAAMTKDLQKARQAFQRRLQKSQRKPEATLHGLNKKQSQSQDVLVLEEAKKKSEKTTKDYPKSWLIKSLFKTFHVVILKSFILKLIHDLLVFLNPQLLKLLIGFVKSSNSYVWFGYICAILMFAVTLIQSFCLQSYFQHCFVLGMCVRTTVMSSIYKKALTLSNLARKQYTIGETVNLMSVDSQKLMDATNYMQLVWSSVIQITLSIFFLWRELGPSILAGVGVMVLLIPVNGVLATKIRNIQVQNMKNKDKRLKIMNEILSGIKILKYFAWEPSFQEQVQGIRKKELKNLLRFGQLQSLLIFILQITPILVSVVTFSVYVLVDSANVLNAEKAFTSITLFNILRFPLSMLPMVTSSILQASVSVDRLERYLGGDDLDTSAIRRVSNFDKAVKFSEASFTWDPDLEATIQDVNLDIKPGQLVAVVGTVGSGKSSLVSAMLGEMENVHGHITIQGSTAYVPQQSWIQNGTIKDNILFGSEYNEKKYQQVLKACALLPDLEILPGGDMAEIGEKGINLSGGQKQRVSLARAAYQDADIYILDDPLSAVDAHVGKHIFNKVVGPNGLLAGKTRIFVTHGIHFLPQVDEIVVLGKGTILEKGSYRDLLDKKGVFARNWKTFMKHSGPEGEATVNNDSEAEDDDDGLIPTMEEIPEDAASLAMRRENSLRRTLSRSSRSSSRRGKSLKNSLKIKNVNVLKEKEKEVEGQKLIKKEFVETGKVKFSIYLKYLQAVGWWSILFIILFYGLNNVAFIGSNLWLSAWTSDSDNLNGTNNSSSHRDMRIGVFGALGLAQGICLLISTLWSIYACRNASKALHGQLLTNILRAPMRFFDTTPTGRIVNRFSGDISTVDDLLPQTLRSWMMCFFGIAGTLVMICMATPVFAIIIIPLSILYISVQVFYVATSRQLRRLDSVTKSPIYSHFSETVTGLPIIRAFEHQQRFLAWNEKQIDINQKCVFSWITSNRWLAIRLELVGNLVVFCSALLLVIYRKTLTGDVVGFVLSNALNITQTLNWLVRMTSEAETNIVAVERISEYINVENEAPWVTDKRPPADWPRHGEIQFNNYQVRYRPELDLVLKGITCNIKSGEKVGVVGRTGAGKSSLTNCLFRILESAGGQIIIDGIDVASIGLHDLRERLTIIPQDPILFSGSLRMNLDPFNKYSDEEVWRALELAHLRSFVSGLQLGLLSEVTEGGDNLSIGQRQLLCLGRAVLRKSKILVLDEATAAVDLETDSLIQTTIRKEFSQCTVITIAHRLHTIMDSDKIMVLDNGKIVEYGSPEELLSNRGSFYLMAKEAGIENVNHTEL

SMILES	Concentration in blank intestinal perfusion fluid ([1]; time 0 h)	Concentration in blank intestinal perfusion fluid ([1]; time 1 h)	Concentration in blank intestinal perfusion fluid ([1]; time 2 h)	Concentration in blank intestinal perfusion fluid ([1]; time 4 h)	Concentration in blank intestinal perfusion fluid ([1]; time 8 h)	Stability in pH 6.8 K-R blank intestinal perfusion fluid [1]	Absorption in the intestinal wall [2]	Concentration in incubation solution with intestinal wall ([2]; time 0 min)	Concentration in incubation solution with intestinal wall ([2]; time 30 min)	Concentration in incubation solution with intestinal wall ([2]; time 60 min)	Concentration in incubation solution with intestinal wall ([2]; time 90 min)	Concentration in incubation solution with intestinal wall ([2]; time 120 min)	Comparison of absorption among intestinal segments [3]	Concentration dependence of absorption [3]	Main intestinal absorption site [3]	Absorption in duodenum compared to colon ([3]; one-way ANOVA)	Transport (absorption) mechanism [3]	Influence of verapamil hydrochloride on absorption [4]	Influence of verapamil hydrochloride on Papp [4]	Influence of probenecid on Papp [5, 7]	other results
O=C(/C=C/c1ccc(O)cc1)CC(=O)/C=C/c1ccc(O)cc1 [BDMCur, bisdemethoxycurcumin]	26 µg/mL	26 µg/mL	26 µg/mL	26 µg/mL	25 µg/mL	stable	no obvious absorption	27.300 µg/mL	27.288 µg/mL	27.247 µg/mL	27.173 µg/mL	26.253 µg/mL	not significantly different (P>0.05); also recorded: better in the duodenum and relatively poorer in the ileum	concentration inhibiting effect	duodenum	increased (P<0.01) in an extremely significant manner	active transport in the carrier-mediated transport	significantly improve the absorption	significantly accelerated	significantly increased	Influence of verapamil hydrochloride on Ka [4]: significantly accelerated; Influence of verapamil hydrochloride on A% ([4]; verapamil hydrochloride 0.05, 0.1, 0.5 mmol/L): almost no influence; Substrate of P-glycoprotein [4]: may be the substrates; Substrate of MRP2 [5]: may be the substrates; Change of A% when probenecid concentration was further increased ([5]; jejunum, above medium concentration): barely changed; Influence of probenecid on Ka [5, 7]: significantly increased; Influence of probenecid on A% ([5]; jejunum, medium-concentration probenecid): significantly increased; Influence of probenecid on A% [5, 8]: significantly increased; Energy dependence of intestinal absorption process [6]: energy-dependent action; Influence of 2,4-dinitrophenol on Ka [6]: decreased significantly (P<0.05); Influence of 2,4-dinitrophenol on Papp [6]: decreased significantly (P<0.05); Influence of 2,4-dinitrophenol on A% [6]: decreased in an extremely significant manner (P<0.01)
COc1cc(/C=C/C(=O)CC(=O)/C=C/c2ccc(O)c(OC)c2)ccc1O [Cur, curcumin]	685 µg/mL	684 µg/mL	682 µg/mL	678 µg/mL	668 µg/mL	stable		719.250 µg/mL	717.346 µg/mL	716.858 µg/mL	716.019 µg/mL	701.751 µg/mL		concentration inhibiting effect					significantly accelerated	significantly increased	Change of A% with probenecid concentration ([5]; jejunum): increased with the increase in probenecid concentration; Change of Ka with probenecid concentration ([5]; jejunum): increased with the increase in probenecid concentration
COc1cc(/C=C/C(O)=C/C(=O)/C=C/c2ccc(O)cc2)ccc1O [DMCur, demethoxycurcumin]	159 µg/mL	158 µg/mL	157 µg/mL	156 µg/mL	154 µg/mL	stable	no obvious absorption	166.950 µg/mL	165.354 µg/mL	164.023 µg/mL	163.724 µg/mL	162.104 µg/mL	duodenum > colon ≈ jejunum > ileum; also recorded: better in the duodenum and relatively poorer in the ileum	saturation phenomenon	duodenum	increased significantly (P<0.05)	active transport in the carrier-mediated transport	significantly improve the absorption	significantly accelerated	significantly increased	Absorption in duodenum compared with ileum ([3]; one-way ANOVA): increased (P<0.01) in an extremely significant manner; Absorption in jejunum compared with ileum ([3]; one-way ANOVA): increased significantly (P<0.05); Influence of verapamil hydrochloride on Ka [4]: significantly accelerated; Influence of verapamil hydrochloride on A% ([4]; medium-concentration and high-concentration inhibitor): significant increase; Substrate of P-glycoprotein [4]: may be the substrates; Substrate of MRP2 [5]: may be the substrates; Change of A% with probenecid concentration ([5]; jejunum): increased with the increase in probenecid concentration; Change of Ka with probenecid concentration ([5]; jejunum): increased with the increase in probenecid concentration; Influence of probenecid on A% [5, 8]: significantly increased; Energy dependence of intestinal absorption process [6]: energy-dependent action; Influence of 2,4-dinitrophenol on Ka [6]: decreased significantly (P<0.05); Influence of 2,4-dinitrophenol on Papp [6]: decreased significantly (P<0.05); Influence of 2,4-dinitrophenol on A% [6]: decreased in an extremely significant manner (P<0.01)
